Laboratory results published in patent publication US9738634B2, “Heterocyclic amide compound and herbicide” (SYNGENTA PARTICIPATIONS AG, priority 2013, dated 2017).

Columns and labels:
Type in all cases: in vivo
barnyard grass [1] = experiment: Test Example 2: weedkilling efficacy, growth period weed treatment in the submerged state; A: barnyard grass
Method: (§1) Weedkilling efficacy test on growth period weed treatment in the submerged state
(§2) Alluvial soil was introduced into 1/10,000 Are Wagner pots, and 4 cm depth submerged conditions were created by addition of water and mixing. Seeds of barnyard grass, bulrush and oval-leafed pondweed were mixed and sown into the aforesaid cups, and the plants were grown by placing in a greenhouse at 25 to 30° C. When the barnyard grass, bulrush and oval-leafed pondweed had reached the 1-2 leaf stage, emulsions of compounds of the present invention prepared according to compounding example 2 were diluted with water to give the specified dosages and applied onto the water surface. 3 weeks after the pesticide treatment the effect on each type of plant was investigated on the basis of the assessment criteria of test example 1.
(§3) A: barnyard grass, B: bulrush, C: oval-leafed pondweed, D: crabgrass, E: green foxtail, F: barnyard grass, G: wild oat, H: black-grass, I: Italian ryegrass, J: common wind-grass, K: Indian mallow, L: redroot pigweed, M: fig-leafed goosefoot, N: chickweed, O: catchweed, p: birds-eye speedwell, a: transplanted rice, b: directly sown rice, c: corn, d: soybean, e: wheat, f: beet, g: rapeseed
(§4) Further, pesticide dosage (g/ha) indicates the concentration regulated such that treatment was with only the stated number of grams (g), when calculated per hectare (ha).

barnyard grass [2] = experiment: Test Example 1: weedkilling efficacy, preemergent weed treatment in the submerged state; A: barnyard grass
Procedure, shortened: (§5)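 Pots of alluvial soil were flooded to a 4 cm depth. Mixed weed seeds were sown and 2.5 leaf-stage rice seedlings transplanted. On sowing day, water-diluted emulsion was applied to the water surface (dose in g/ha). After 3 weeks at 25–30 °C, effects were rated.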

oval-leafed pondweed [3] = experiment: Test Example 1: weedkilling efficacy, preemergent weed treatment in the submerged state; C: oval-leafed pondweed
Procedure, shortened: as §5

transplanted rice = experiment: Test Example 1: preemergent weed treatment in the submerged state, effect on crop; a: transplanted rice
Procedure, shortened: as §5

bulrush [4] = experiment: Test Example 2: weedkilling efficacy, growth period weed treatment in the submerged state; B: bulrush
Method: as §1, §2, §3, §4

bulrush [5] = experiment: Test Example 1: weedkilling efficacy, preemergent weed treatment in the submerged state; B: bulrush
Procedure, shortened: as §5

oval-leafed pondweed [6] = experiment: Test Example 2: weedkilling efficacy, growth period weed treatment in the submerged state; C: oval-leafed pondweed
Method: as §1, §2, §3, §4

SMILES	A (barnyard grass) weedkilling efficacy grade (barnyard grass [1]; treatment dosage 252 g/ha)	A (barnyard grass) weedkilling efficacy grade (barnyard grass [2]; treatment dosage 252 g/ha)	C (oval-leafed pondweed) weedkilling efficacy grade (oval-leafed pondweed [3]; treatment dosage 252 g/ha)	a (transplanted rice) effect on crop grade (transplanted rice; treatment dosage 252 g/ha)	B (bulrush) weedkilling efficacy grade (bulrush [4]; treatment dosage 252 g/ha)	B (bulrush) weedkilling efficacy grade (bulrush [5]; treatment dosage 252 g/ha)	C (oval-leafed pondweed) weedkilling efficacy grade (oval-leafed pondweed [6]; treatment dosage 252 g/ha)	A: barnyard grass, weed kill grade (barnyard grass [2]; treatment dosage 252 g/ha)	C: oval-leafed pondweed, weed kill grade (oval-leafed pondweed [3]; treatment dosage 252 g/ha)	a: transplanted rice, effect on crop grade (transplanted rice; treatment dosage 252 g/ha)	B: bulrush, weed kill grade (bulrush [5]; treatment dosage 252 g/ha)	A (barnyard grass) weedkilling efficacy grade (barnyard grass [1]; treatment dosage 320 g/ha)	A: barnyard grass, weed kill grade (barnyard grass [2]; treatment dosage 320 g/ha)	C: oval-leafed pondweed, weed kill grade (oval-leafed pondweed [3]; treatment dosage 320 g/ha)	a: transplanted rice, effect on crop grade (transplanted rice; treatment dosage 320 g/ha)	B (bulrush) weedkilling efficacy grade (bulrush [4]; treatment dosage 320 g/ha)	B: bulrush, weed kill grade (bulrush [5]; treatment dosage 320 g/ha)	C (oval-leafed pondweed) weedkilling efficacy grade (oval-leafed pondweed [6]; treatment dosage 320 g/ha)
CC1=C(c2ccccc2)C(=O)N(C(C)(C)C(=O)Nc2nnc(-c3ccccc3)s2)CO1 [B-1-11]	1 (weed kill ratio 5% or more, less than 20%)	4 (weed kill ratio 70% or more, less than 90%)	5 (weed kill ratio 90% or more, (practically complete withering))	0 (weed kill ratio 5% or less (practically no effect))	4 (weed kill ratio 70% or more, less than 90%)	5 (weed kill ratio 90% or more, (practically complete withering))	3 (weed kill ratio 40% or more, less than 70%)	–	–	–	–	–	–	–	–	–	–	–
CC(C)(C(=O)Nc1cc(Cl)cc(Cl)n1)N1COCN(c2c(F)cccc2F)C1=O [A-6-01]	5 (weed kill ratio 90% or more, (practically complete withering))	–	–	–	5 (weed kill ratio 90% or more, (practically complete withering))	–	5 (weed kill ratio 90% or more, (practically complete withering))	5 (weed kill ratio 90% or more, (practically complete withering))	5 (weed kill ratio 90% or more, (practically complete withering))	3 (weed kill ratio 40% or more, less than 70%)	5 (weed kill ratio 90% or more, (practically complete withering))	–	–	–	–	–	–	–
CC(C)(C(=O)Nc1cc(F)nc(F)c1)N1COCN(c2ccccc2)C1=O [A-4-04]	–	–	–	–	–	–	–	–	–	–	–	3 (weed kill ratio 40% or more, less than 70%)	5 (weed kill ratio 90% or more, (practically complete withering))	5 (weed kill ratio 90% or more, (practically complete withering))	0 (weed kill ratio 5% or less (practically no effect))	5 (weed kill ratio 90% or more, (practically complete withering))	5 (weed kill ratio 90% or more, (practically complete withering))	4 (weed kill ratio 70% or more, less than 90%)
Cc1cc(C(F)(F)F)cc(NC(=O)C(C)(C)N2COCN(c3ccccc3)C2=O)n1 [A-2-58]	–	–	–	–	–	–	–	–	–	–	–	5 (weed kill ratio 90% or more, (practically complete withering))	5 (weed kill ratio 90% or more, (practically complete withering))	5 (weed kill ratio 90% or more, (practically complete withering))	1 (weed kill ratio 5% or more, less than 20%)	5 (weed kill ratio 90% or more, (practically complete withering))	5 (weed kill ratio 90% or more, (practically complete withering))	5 (weed kill ratio 90% or more, (practically complete withering))
CC(C)(C(=O)Nc1cc(OC(F)F)ccn1)N1COCN(c2ccccc2)C1=O [A-2-53]	–	–	–	–	–	–	–	–	–	–	–	5 (weed kill ratio 90% or more, (practically complete withering))	5 (weed kill ratio 90% or more, (practically complete withering))	5 (weed kill ratio 90% or more, (practically complete withering))	1 (weed kill ratio 5% or more, less than 20%)	5 (weed kill ratio 90% or more, (practically complete withering))	5 (weed kill ratio 90% or more, (practically complete withering))	5 (weed kill ratio 90% or more, (practically complete withering))
CC(C)(C(=O)Nc1ccnc(C(F)(F)F)c1)N1COCN(c2ccccc2)C1=O [A-4-06]	4 (weed kill ratio 70% or more, less than 90%)	–	–	–	5 (weed kill ratio 90% or more, (practically complete withering))	–	4 (weed kill ratio 70% or more, less than 90%)	5 (weed kill ratio 90% or more, (practically complete withering))	5 (weed kill ratio 90% or more, (practically complete withering))	0 (weed kill ratio 5% or less (practically no effect))	5 (weed kill ratio 90% or more, (practically complete withering))	–	–	–	–	–	–	–
CC1=C(c2ccccc2)C(=O)N(C(C)(C)C(=O)Nc2cccc(-c3ccccc3)n2)CO1 [B-2-60]	4 (weed kill ratio 70% or more, less than 90%)	5 (weed kill ratio 90% or more, (practically complete withering))	5 (weed kill ratio 90% or more, (practically complete withering))	0 (weed kill ratio 5% or less (practically no effect))	3 (weed kill ratio 40% or more, less than 70%)	5 (weed kill ratio 90% or more, (practically complete withering))	3 (weed kill ratio 40% or more, less than 70%)	–	–	–	–	–	–	–	–	–	–	–
Cc1cc(C)nc(NC(=O)C(C)(C)N2COCN(c3ccccc3)C2=O)c1 [A-2-56]	4 (weed kill ratio 70% or more, less than 90%)	–	–	–	5 (weed kill ratio 90% or more, (practically complete withering))	–	3 (weed kill ratio 40% or more, less than 70%)	5 (weed kill ratio 90% or more, (practically complete withering))	5 (weed kill ratio 90% or more, (practically complete withering))	0 (weed kill ratio 5% or less (practically no effect))	5 (weed kill ratio 90% or more, (practically complete withering))	–	–	–	–	–	–	–
CC(C)(C(=O)Nc1cccc(C(F)(F)F)n1)N1COCN(c2ccccc2)C1=O [A-2-44]	3 (weed kill ratio 40% or more, less than 70%)	–	–	–	5 (weed kill ratio 90% or more, (practically complete withering))	–	1 (weed kill ratio 5% or more, less than 20%)	5 (weed kill ratio 90% or more, (practically complete withering))	4 (weed kill ratio 70% or more, less than 90%)	0 (weed kill ratio 5% or less (practically no effect))	5 (weed kill ratio 90% or more, (practically complete withering))	–	–	–	–	–	–	–
CC(C)(C(=O)Nc1cc(C#N)ccn1)N1COCN(c2ccccc2)C1=O [A-2-48]	4 (weed kill ratio 70% or more, less than 90%)	–	–	–	5 (weed kill ratio 90% or more, (practically complete withering))	–	5 (weed kill ratio 90% or more, (practically complete withering))	5 (weed kill ratio 90% or more, (practically complete withering))	5 (weed kill ratio 90% or more, (practically complete withering))	0 (weed kill ratio 5% or less (practically no effect))	5 (weed kill ratio 90% or more, (practically complete withering))	–	–	–	–	–	–	–
Cc1cccc(N2COCN(C(C)(C)C(=O)Nc3cc(Cl)cc(Cl)n3)C2=O)c1 [A-6-08]	–	–	–	–	–	–	–	–	–	–	–	5 (weed kill ratio 90% or more, (practically complete withering))	5 (weed kill ratio 90% or more, (practically complete withering))	5 (weed kill ratio 90% or more, (practically complete withering))	0 (weed kill ratio 5% or less (practically no effect))	5 (weed kill ratio 90% or more, (practically complete withering))	5 (weed kill ratio 90% or more, (practically complete withering))	4 (weed kill ratio 70% or more, less than 90%)
